These are literature values, as cited in patent publication US10933035B2, “Antimicrobial silicone-based wound dressings” (Covalon Technologies Inc., priority 2010, dated 2021).

The conditions of the series: 20° C.

For the compound `[H]/N=C(\N/C(=N/[H])NCCCCCCNC(=N)NC(=N)Nc1ccc(Cl)cc1)Nc1ccc(Cl)cc1` [Chlorhexidine], the Solubility in water is listed as 0.008 % wt/vol.
